These results are taken from article PMC8065212, “The active form of the influenza cap-snatching endonuclease inhibitor baloxavir marboxil is a tight binding inhibitor” (The Journal of Biological Chemistry, 2021).

Each structure is given as a SMILES string. “And” between values parts separate entries of the source, which are not always exact repeats. Equal entries are not always repeated. “Also recorded” adds a separate entry of the source. Where two headings read alike, the source gives them in different places.

Experiment [1] deals with FluB-ht WT (recombinant influenza B heterotrimeric PA/PB1/PB2 polymerase, PA endonuclease) (Influenza B virus, UniProt Q5V8Z9). As to the kind of experiment: biochemical.
The subject of experiment [2] is FluB-ht WT. It counts as biochemical. Conditions: 75 nM BXA.
Experiment [3] relates to FluB-ht WT. The format is biochemical. The following applies: 75 nM BXA, 55 nM FluB-ht WT.
The next experiment deals with FluB-ht. Description: Michaelis-Menten kinetics of BXA inhibition. The format is biochemical, Influenza B. The following applies: 25 nM FluB-ht, substrate as indicated. The text has this: Supplementary Figure S4. Michaelis-Menten kinetics of BXA inhibition. (A) Scheme detailing the experimental setup and representative data showing the effect of BXA on substrate utilization by FluB-ht. (B) Graphic representation and analysis of the data presented in panel A are shown on the left-hand side graph. The effects of increasing concentrations of BXA on kcat and Km are illustrated on the right-hand side graph. Data represents the average of two independent experiments. The final reaction conditions were as follows: 30 mM Tris-HCL pH 7.5, 25 mM NaCl, 5 mM MgCl2, 25 nM FluB-ht, 1.7 µM vRNA, 5% DMSO, BXA as indicated and 20-nt capped substrate as indicated. The indicated substrate concentrations were achieved by mixing 0.1 µM 20-nt radiolabeled capped substrate RNA with increasing amounts of unlabeled substrate. […] The data point at 2.1 µM was therefore not considered for kcat and Km measurements. […] Tight binding of enzyme and inhibitor depletes the concentration of free enzyme and the steady-state assumption is no longer valid.

The test system of experiment [4] is cap-snatching endonuclease (PA). The following applies: enzyme concentration not indicated; cited from earlier work.
The subject of the next experiment is influenza infection. The following applies: cited from earlier work.
The subject of another experiment is influenza. Conditions: single dose, postexposure prophylaxis; placebo group 13.6%; cited from earlier work.
A further experiment deals with influenza virus. Conditions: cited from earlier work.

The IC50 is the point on the concentration scale where inhibition reaches its midpoint. As usually defined, the Ki is a measure of affinity in units of concentration, obtained from inhibition or displacement. On to `O=C1c2c(O)c(=O)ccn2N([C@@H]2c3ccccc3SCc3c2ccc(F)c3F)[C@@H]2COCCN12` [BXA, baloxavir acid], for which, in experiment [1], the IC50 came to 112 nM and the inhibition constant Ki stood at 12 nM. Further, the “dependence of IC50 on substrate concentration” value in experiment [1] (100, 300 and 500 nM 20-nt substrate, 55 nM FluB-ht WT (Fig. S1)) is “independent within a narrow range of substrate concentrations”. Moreover, the “slope of plot of IC50 versus enzyme concentration” value in experiment [1] (WT) was 0.56 and ~0.5. In addition, in the experiment on FluB-ht WT [2] (55 nM FluB-ht WT, 1 hour preincubation), the “inhibition of endonuclease activity by order of addition” value is “inhibition was only observed under conditions where an E:I:Mg^2+ complex was preformed; also recorded: Preincubation E, I, and MgCl2 is required for inhibition”. For the same compound, in the experiment with FluB-ht WT [2] (up to 120 min), the “nuclease activity over longer periods of time after preformed E:I:Mg2+ complex” value is given as “negligible”. Further, the “preincubation time for maximal inhibition” value with FluB-ht WT [3] is recorded as approximately 30 min. In addition, the “effects of increasing concentrations of BXA on kcat and Km” value in the experiment on FluB-ht is “reduction in kcat and constant Km values”. In addition, the half-inhibitory concentration (IC50) in experiment [4] is approximately 2 nM.
Consider `COC(=O)OCOc1c2n(ccc1=O)N([C@@H]1c3ccccc3SCc3c1ccc(F)c3F)[C@@H]1COCCN1C2=O` [BXM, Baloxavir marboxil], for which the “reduction in time until symptom resolution” value in the experiment with influenza infection (human, in vivo) is 20–25%. Also, in the experiment with influenza, the household transmissions was 1.9%. Also, in the experiment on influenza virus, the EC50 result is on record as “low nanomolar range”.
As for `CCOC(=O)C1=C[C@@H](OC(CC)CC)[C@H](NC(C)=O)[C@@H](N)C1` [oseltamivir], in the experiment with influenza infection, the “reduction in time until symptom resolution” value is on record as 20–25%.
